Key:
BRAF V600E = target: T1, BRAF V600E (Homo sapiens, UniProt P15056, V600E); assay: Cellular assay of target protein degradation, T-Rex 293 cells stably transfected with HA-BRAF_V600E (HA immunofluorescence, high content imaging); format: cell-based; conditions: T-Rex 293 HA-BRAF V600E; for DC50: half maximal degradation, read-out: BRaf V600E DC50; for Dmax: maximum degradation observed
T1 construct: expressed in transfected cells
In short: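 Degradation of the HA-tagged construct is measured after 24 h treatment at 37 °C across 1 μM to 0.1 nM in 0.1% DMSO, in doxycycline-induced (1 ng/mL) cells. DC50 and Dmax come from HA fluorescence imaging.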

BRAF G466V = target: T2, BRAF G466V (Homo sapiens, UniProt P15056, G466V); assay: Cellular assay of target protein degradation, T-Rex 293 cells stably transfected with HA-BRAF G466V (HA immunofluorescence, high content imaging); format: cell-based; conditions: T-Rex 293 HA-BRAF G466V; for DC50: half maximal degradation, read-out: BRaf G466V DC50; for Dmax: maximum degradation observed
T2 construct: expressed in transfected cells
T2 sequence (P15056 whole entry G466V): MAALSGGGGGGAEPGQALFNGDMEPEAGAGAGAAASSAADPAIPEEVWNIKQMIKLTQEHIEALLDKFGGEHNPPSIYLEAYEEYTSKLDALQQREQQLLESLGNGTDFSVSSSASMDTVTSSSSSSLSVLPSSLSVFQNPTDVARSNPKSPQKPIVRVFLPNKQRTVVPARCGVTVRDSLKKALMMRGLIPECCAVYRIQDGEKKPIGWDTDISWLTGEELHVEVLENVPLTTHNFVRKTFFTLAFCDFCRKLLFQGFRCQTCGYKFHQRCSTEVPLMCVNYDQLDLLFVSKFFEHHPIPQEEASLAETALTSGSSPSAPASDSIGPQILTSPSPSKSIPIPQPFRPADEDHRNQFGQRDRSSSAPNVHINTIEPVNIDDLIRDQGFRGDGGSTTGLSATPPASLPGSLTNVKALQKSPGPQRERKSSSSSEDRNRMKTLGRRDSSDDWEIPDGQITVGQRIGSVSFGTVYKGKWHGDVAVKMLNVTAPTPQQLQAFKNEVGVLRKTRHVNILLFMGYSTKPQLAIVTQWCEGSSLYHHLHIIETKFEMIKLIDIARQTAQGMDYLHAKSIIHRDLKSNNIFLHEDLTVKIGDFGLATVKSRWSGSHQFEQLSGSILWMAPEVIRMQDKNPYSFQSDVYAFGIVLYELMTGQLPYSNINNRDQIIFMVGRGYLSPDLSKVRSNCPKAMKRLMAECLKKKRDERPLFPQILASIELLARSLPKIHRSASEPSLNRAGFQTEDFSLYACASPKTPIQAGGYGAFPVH
In short: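 Dose range spans 30 nM to 3 pM (0.1% DMSO) over 24 hours at 37° C, in cells induced with 0.75 ng/mL doxycycline. Fixed cells are probed with anti-HA antibody overnight at 4° C, then imaged; half-maximal degradation and maximum degradation are derived.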

T1 sequence (P15056 whole entry V600E): as the sequence (P15056 whole entry G466V) above, with V466G, V600E counted along it

SMILES | DC50 (BRAF V600E) | Dmax (BRAF V600E) | DC50 (BRAF G466V) | Dmax (BRAF G466V)
COc1cc(N2CC3(CN(CC4CCN(c5ccc(-c6cnc7[nH]cc(C(=O)c8c(F)ccc(NS(=O)(=O)N9CC[C@@H](F)C9)c8F)c7c6)cc5F)CC4)C3)C2)cc2c1C(=O)N(C1CCC(=O)NC1=O)C2 (stereo partly drawn) [Compound 132, (3R)-N-[3-(5-{4-[4-({6-[2-(2,6-dioxopiperidin-3-yl)-7-methoxy-1-oxo-2,3-dihydro-1H-isoindol-5-yl]-2,6-diazaspiro[3.3]heptan-2-yl}methyl)piperidin-1-yl]-3-fluorophenyl}-1H-pyrrolo[2,3-b]pyridine-3-carbonyl)-2,4-difluorophenyl]-3-fluoropyrrolidine-1-sulfonamide] | 5 to 50 nM | 35 to 70% | < 1 nM | > 70%
COc1cc(N2CC3(CN(CC4CCN(c5ncc(-c6cnc7[nH]cc(C(=O)c8c(F)ccc(NS(=O)(=O)N9CC[C@@H](F)C9)c8F)c7c6)cn5)CC4)C3)C2)cc2c1C(=O)N(C1CCC(=O)NC1=O)C2 (stereo partly drawn) [Compound 134, (3R)-N-[3-(5-{2-[4-({6-[2-(2,6-dioxopiperidin-3-yl)-7-methoxy-1-oxo-2,3-dihydro-1H-isoindol-5-yl]-2,6-diazaspiro[3.3]heptan-2-yl}methyl)piperidin-1-yl]pyrimidn-5-yl}-1H-pyrrolo[2,3-b]pyridine-3-carbonyl)-2,4-difluorophenyl]-3-fluoropyrrolidine-1-sulfonamide] | 5 to 50 nM | 35 to 70% | < 1 nM | > 70%
O=C1CCC(N2Cc3cc(N4CCN(CCCC5CCN(c6ccc(-c7cnc8[nH]cc(C(=O)c9c(F)ccc(NS(=O)(=O)N%10CC[C@@H](F)C%10)c9F)c8c7)cc6)CC5)CC4)ccc3C2=O)C(=O)N1 (stereo partly drawn) [Compound 135, (3R)-N-[3-(5-{4-[4-(3-{4-[2-(2,6-dioxopiperidin-3-yl)-1-oxo-2,3-dihydro-1H-isoindol-5-yl]piperazin-1-yl}propyl)piperidin-1-yl]phenyl}-1H-pyrrolo[2,3-b]pyridine-3-carbonyl)-2,4-difluorophenyl]-3-fluoropyrrolidine-1-sulfonamide] | 5 to 50 nM | 35 to 70% | 1 to 10 nM | > 70%
O=C1CCN(c2ccc(N3CCN(CCc4ccc(-c5cnc6[nH]cc(C(=O)c7c(F)ccc(NS(=O)(=O)N8CC[C@@H](F)C8)c7F)c6c5)cc4)CC3)cc2F)C(=O)N1 [Compound 136, (3R)-N-(3-{5-[4-(2-{4-[4-(2,4-dioxo-1,3-diazinan-1-yl)-3-fluorophenyl]piperazin-1-yl}ethyl)phenyl]-1H-pyrrolo[2,3-b]pyridine-3-carbonyl}-2,4-difluorophenyl)-3-fluoropyrrolidine-1-sulfonamide] | 50 to 500 nM | < 35% | > 30 nM | –
O=C1CCN(c2ccc(C3CCN(CC4CCN(c5ccc(-c6cnc7[nH]cc(C(=O)c8c(F)ccc(NS(=O)(=O)N9CC[C@@H](F)C9)c8F)c7c6)cc5)CC4)CC3)cc2F)C(=O)N1 [Compound 140, (3R)-N-[3-(5-{4-[4-({4-[4-(2,4-dioxo-1,3-diazinan-1-yl)-3-fluorophenyl]piperidin-1-yl}methyl)piperidin-1-yl]phenyl}-1H-pyrrolo[2,3-b]pyridine-3-carbonyl)-2,4-difluorophenyl]-3-fluoropyrrolidine-1-sulfonamide] | 5 to 50 nM | 35 to 70% | < 1 nM | 35 to 70%
O=C1CCC(N2Cc3cc(N4CCC(COCC5CCN(c6ccc(-c7cnc8[nH]cc(C(=O)c9c(F)ccc(NS(=O)(=O)N%10CC[C@@H](F)C%10)c9F)c8c7)cc6)CC5)CC4)ccc3C2=O)C(=O)N1 (stereo partly drawn) [Compound 143, (3R)-N-{3-[5-(4-{4-[({1-[2-(2,6-dioxopiperidin-3-yl)-1-oxo-2,3-dihydro-1H-isoindol-5-yl]piperidin-4-yl}methoxy)methyl]piperidin-1-yl}phenyl)-1H-pyrrolo[2,3-b]pyridine-3-carbonyl]-2,4-difluorophenyl}-3-fluoropyrrolidine-1-sulfonamide] | 5 to 50 nM | < 35% | 10 to 30 nM | 35 to 70%

Continued, values first:

DC50 (BRAF V600E) | Dmax (BRAF V600E) | DC50 (BRAF G466V) | Dmax (BRAF G466V) | SMILES
5 to 50 nM | 35 to 70% | < 1 nM | > 70% | COc1cc(N2CC3(CN(CC4CCN(c5ccc(-c6cnc7[nH]cc(C(=O)c8c(F)ccc(NS(=O)(=O)N9CC[C@@H](F)C9)c8F)c7c6)cn5)CC4)C3)C2)cc2c1C(=O)N(C1CCC(=O)NC1=O)C2 (stereo partly drawn) [Compound 133, (3R)-N-[3-(5-{6-[4-({6-[2-(2,6-dioxopiperidin-3-yl)-7-methoxy-1-oxo-2,3-dihydro-1H-isoindol-5-yl]-2,6-diazaspiro[3.3]heptan-2-yl}methyl)piperidin-1-yl]pyridin-3-yl}-1H-pyrrolo[2,3-b]pyridine-3-carbonyl)-2,4-difluorophenyl]-3-fluoropyrrolidine-1-sulfonamide]
5 to 50 nM | 35 to 70% | 1 to 10 nM | > 70% | O=C1CCC(N2Cc3cc(N4CCC(CCCN5CCN(c6ccc(-c7cnc8[nH]cc(C(=O)c9c(F)ccc(NS(=O)(=O)N%10CC[C@@H](F)C%10)c9F)c8c7)cc6)CC5)CC4)ccc3C2=O)C(=O)N1 (stereo partly drawn) [Compound 137, (3R)-N-[3-(5-{4-[4-(3-{1-[2-(2,6-dioxopiperidin-3-yl)-1-oxo-2,3-dihydro-1H-isoindol-5-yl]piperidin-4-yl}propyl)piperazin-1-yl]phenyl}-1H-pyrrolo[2,3-b]pyridine-3-carbonyl)-2,4-difluorophenyl]-3-fluoropyrrolidine-1-sulfonamide]
50 to 500 nM | 35 to 70% | 1 to 10 nM | > 70% | O=C1CCC(N2Cc3cc(OCCCOC4CCN(c5ccc(-c6cnc7[nH]cc(C(=O)c8c(F)ccc(NS(=O)(=O)N9CC[C@@H](F)C9)c8F)c7c6)cc5)CC4)ccc3C2=O)C(=O)N1 (stereo partly drawn) [Compound 139, (3R)-N-[3-(5-{4-[4-(3-{[2-(2,6-dioxopiperidin-3-yl)-1-oxo-2,3-dihydro-1H-isoindol-5-yl]oxy}propoxy)piperidin-1-yl]phenyl}-1H-pyrrolo[2,3-b]pyridine-3-carbonyl)-2,4-difluorophenyl]-3-fluoropyrrolidine-1-sulfonamide]
5 to 50 nM | 35 to 70% | 1 to 10 nM | > 70% | O=C1CCC(N2Cc3cc(CCCN4CC5(C4)CN(c4ccc(-c6cnc7[nH]cc(C(=O)c8c(F)ccc(NS(=O)(=O)N9CC[C@@H](F)C9)c8F)c7c6)cn4)C5)ccc3C2=O)C(=O)N1 (stereo partly drawn) [Compound 141, (3R)-N-(3-{5-[6-(6-{3-[2-(2,6-dioxopiperidin-3-yl)-1-oxo-2,3-dihydro-1H-isoindol-5-yl]propyl}-2,6-diazaspiro[3.3]heptan-2-yl)pyridin-3-yl]-1H-pyrrolo[2,3-b]pyridine-3-carbonyl}-2,4-difluorophenyl)-3-fluoropyrrolidine-1-sulfonamide]
5 to 50 nM | 35 to 70% | 1 to 10 nM | > 70% | O=C1CCC(N2Cc3cc(N4CCC(O)(CN5CC6(C5)CN(c5ccc(-c7cnc8[nH]cc(C(=O)c9c(F)ccc(NS(=O)(=O)N%10CC[C@@H](F)C%10)c9F)c8c7)cc5)C6)CC4)ccc3C2=O)C(=O)N1 (stereo partly drawn) [Compound 142, (3R)—N-[3-[5-[4-[6-[[1-[2-(2,6-dioxo-3-piperidyl)-1-oxo-isoindolin-5-yl]-4-hydroxy-4-piperidyl]methyl]-2,6-diazaspiro[3.3]heptan-2-yl]phenyl]-1H-pyrrolo[2,3-b]pyridine-3-carbonyl]-2,4-difluoro-phenyl]-3-fluoro-pyrrolidine-1-sulfonamide]
